Laboratory results reported in ChEMBL document CHEMBL1135366, “An N1-hydrogen bonding model for flavin coenzyme” (Bioorg Med Chem Lett, 2002).

Assays:
[1] = Reaction constant k1 value for the oxidation of the 1-benzyl-dihydronicotinamide in 100 mM, pH 7.4 phosphate buffer at 15 degrees C
[2] = Reaction constant k1 value for sulfite (100 mM) addition at pH 7.4 phosphate buffer at 30 degrees C
[3] = Reaction constant k1 value for the oxidation of the 1-benzyl-dihydronicotinamide in 100 mM, pH 7.4 phosphate buffer at 30 degrees C
[4] = Dissociation constant value was determined
[5] = Reaction constant k-1 value for sulfite (100 mM) addition at pH 7.4 phosphate buffer at 30 degrees C

Row | K1 [1] [M⁻¹ s⁻¹] | K1 [2] [M⁻¹ s⁻¹] | K1 [3] [M⁻¹ s⁻¹] | Kd [4] [mM] | K-1 [5] [min⁻¹] | Compound
1 | 10.8 | 0.00822 | 24.9 | 371 | 0.183 | O=c1nc2n3c4c(cccc4nc-2c(=O)[nH]1)CCC3CO (configuration not stated)
2 | 15.5 | – | 42.9 | – | – | Cn1c2nc(=O)[nH]c(=O)c-2nc2ccccc21
3 | 10.2 | 0.00738 | 25.7 | 1470 | 0.651 | O=c1nc2n3c4c(cccc4nc-2c(=O)[nH]1)CCC3
